29 compounds from patent US12479831B2, “Substituted N(-methyl-D3)pyridazine-3-carboxamide or M-(methyl-D3)-nicotinamide compounds as IL-12, IL-23 and/or IFNα modulators” (BRISTOL-MYERS SQUIBB COMPANY, priority 2020, dated 2025) can be followed below.

pIC50: −log10 of the molar value.

For this experiment, the system named is IFNα-Induced STAT Phosphorylation in Human Whole Blood. In words: IFNα-Induced STAT Phosphorylation in Human Whole Blood. Format: cell-based. As to conditions: 1 h incubation with compound, 1000 U/mL recombinant human IFNα A/D for 15 min, pSTAT5 (pY694) median fluorescence intensity in CD3 positive population, read-out: hWB IC50.
As usually defined, the pIC50 is −log10 of the IC50, conventionally taken in molar units. As to `[2H]C([2H])([2H])NC(=O)c1nnc(Nc2cc(C(=O)N(C)C)n(C)n2)cc1Nc1cccc(-c2ncc(F)cn2)c1OC` [Example 85, 6-((5-(dimethylcarbamoyl)-1-methyl-1H-pyrazol-3-yl)amino)-4-((3-(5-fluoropyrimidin-2-yl)-2-methoxyphenyl)amino)-N-(methyl-d3)pyridazine-3-carboxamide], the pIC50 is 7.37.

Turning to `[2H]C([2H])([2H])NC(=O)c1nnc(Nc2cnn(CC)n2)cc1Nc1cccc(-c2ncccn2)c1OC` [Example 86, 6-((2-ethyl-2H-1,2,3-triazol-4-yl)amino)-4-((2-methoxy-3-(pyrimidin-2-yl)phenyl)amino)-N-(methyl-d3)pyridazine-3-carboxamide], the pIC50 was 7.02. Regarding `[2H]C([2H])([2H])NC(=O)c1nnc(Nc2cnn(CC)n2)cc1Nc1cccc(-c2ncc(F)cn2)c1OC` [Example 87, 6-((2-ethyl-2H-1,2,3-triazol-4-yl)amino)-4-((3-(5-fluoropyrimidin-2-yl)-2-methoxyphenyl)amino)-N-(methyl-d3)pyridazine-3-carboxamide], the pIC50 is 6.46. As for `[2H]C([2H])([2H])NC(=O)c1nnc(Nc2cn(CC)nn2)cc1Nc1cccc(-c2ncccn2)c1OC` [Example 88, 6-((1-ethyl-1H-1,2,3-triazol-4-yl)amino)-4-((2-methoxy-3-(pyrimidin-2-yl)phenyl)amino)-N-(methyl-d3)pyridazine-3-carboxamide], the figure is 6.84; as for `[2H]C([2H])([2H])NC(=O)c1nnc(Nc2cn(CC)nn2)cc1Nc1cccc(-c2ncc(F)cn2)c1OC` [Example 89, 6-((1-ethyl-1H-1,2,3-triazol-4-yl)amino)-4-((3-(5-fluoropyrimidin-2-yl)-2-methoxyphenyl)amino)-N-(methyl-d3)pyridazine-3-carboxamide], 6.60; as for `[2H]C([2H])([2H])NC(=O)c1nnc(Nc2cnn(C)n2)cc1Nc1cccc(-c2ncc(F)cn2)c1OC` [Example 90, 4-((3-(5-fluoropyrimidin-2-yl)-2-methoxyphenyl)amino)-N-(methyl-d3)-6-((2-methyl-2H-1,2,3-triazol-4-yl)amino)pyridazine-3-carboxamide], 6.77. With `[2H]C([2H])([2H])NC(=O)c1nnc(Nc2cn(C)nn2)cc1Nc1cccc(-c2ncc(F)cn2)c1OC` [Example 91, 4-((3-(5-fluoropyrimidin-2-yl)-2-methoxyphenyl)amino)-N-(methyl-d3)-6-((1-methyl-1H-1,2,3-triazol-4-yl)amino)pyridazine-3-carboxamide], the pIC50 is 6.78. With `[2H]C([2H])([2H])NC(=O)c1nnc(Nc2cn(CC)nn2)cc1Nc1cc(F)cc(-c2ncccn2)c1OC` [Example 92, 6-((1-ethyl-1H-1,2,3-triazol-4-yl)amino)-4-((5-fluoro-2-methoxy-3-(pyrimidin-2-yl)phenyl)amino)-N-(methyl-d3)pyridazine-3-carboxamide] the figure was 6.87; with `[2H]C([2H])([2H])NC(=O)c1nnc(Nc2cn(C)nn2)cc1Nc1cc(F)cc(-c2ncccn2)c1OC` [Example 93, 4-((5-fluoro-2-methoxy-3-(pyrimidin-2-yl)phenyl)amino)-N-(methyl-d3)-6-((1-methyl-1H-1,2,3-triazol-4-yl)amino)pyridazine-3-carboxamide], 6.38; with `[2H]C([2H])([2H])NC(=O)c1nnc(Nc2ccc(C)nn2)cc1Nc1cccc(-c2ncc(F)cn2)c1OC` [Example 94, 4-((3-(5-fluoropyrimidin-2-yl)-2-methoxyphenyl)amino)-N-(methyl-d3)-6-((6-methylpyridazin-3-yl)amino)pyridazine-3-carboxamide], 7.42.

Turning to `[2H]C([2H])([2H])NC(=O)c1nnc(Nc2ccc(C#N)nn2)cc1Nc1cccc(-c2ncc(F)cn2)c1OC` [Example 95, 6-((6-cyanopyridazin-3-yl)amino)-4-((3-(5-fluoropyrimidin-2-yl)-2-methoxyphenyl)amino)-N-(methyl-d3)pyridazine-3-carboxamide], the pIC50 was 6.74.

`[2H]C([2H])([2H])NC(=O)c1nnc(Nc2ccc(OC)nn2)cc1Nc1cccc(-c2ncccn2)c1OC` [Example 96, 4-((2-methoxy-3-(pyrimidin-2-yl)phenyl)amino)-6-((6-methoxypyridazin-3-yl)amino)-N-(methyl-d3)pyridazine-3-carboxamide]: the pIC50 is 7.02. As to `[2H]C([2H])([2H])NC(=O)c1nnc(Nc2ccc(OC)nn2)cc1Nc1cccc(-c2ncc(F)cn2)c1OC` [Example 97, 4-((3-(5-fluoropyrimidin-2-yl)-2-methoxyphenyl)amino)-6-((6-methoxypyridazin-3-yl)amino)-N-(methyl-d3)pyridazine-3-carboxamide], the pIC50 is 7.10. As for `[2H]C([2H])([2H])NC(=O)c1nnc(Nc2ccc(C(F)(F)F)nn2)cc1Nc1cccc(-c2ncccn2)c1OC` [Example 98, 4-((2-methoxy-3-(pyrimidin-2-yl)phenyl)amino)-N-(methyl-d3)-6-((6-(trifluoromethyl)pyridazin-3-yl)amino)pyridazine-3-carboxamide], the figure is 6.95; as for `[2H]C([2H])([2H])NC(=O)c1nnc(Nc2ccc(C3CC3)nn2)cc1Nc1cccc(-c2ncc(F)cn2)c1OC` [Example 99, 6-((6-cyclopropylpyridazin-3-yl)amino)-4-((3-(5-fluoropyrimidin-2-yl)-2-methoxyphenyl)amino)-N-(methyl-d3)pyridazine-3-carboxamide], 7.15. As for `[2H]C([2H])([2H])NC(=O)c1nnc(Nc2cc3ccccc3nn2)cc1Nc1cccc(-c2ncc(F)cn2)c1OC` [Example 100, 6-(cinnolin-3-ylamino)-4-((3-(5-fluoropyrimidin-2-yl)-2-methoxyphenyl)amino)-N-(methyl-d3)pyridazine-3-carboxamide], the figure is 6.78; as for `[2H]C([2H])([2H])NC(=O)c1nnc(Nc2cnc(C(C)(C)O)cn2)cc1Nc1cccc(-c2ncc(F)cn2)c1OC` [Example 101, 4-((3-(5-fluoropyrimidin-2-yl)-2-methoxyphenyl)amino)-6-((5-(2-hydroxypropan-2-yl)pyrazin-2-yl)amino)-N-(methyl-d3)pyridazine-3-carboxamide], 7.03. As to `[2H]C([2H])([2H])NC(=O)c1nnc(Nc2cc(C(C)(C)O)ccn2)cc1Nc1cccc(-c2ncc(F)cn2)c1OC` [Example 102, 4-((3-(5-fluoropyrimidin-2-yl)-2-methoxyphenyl)amino)-6-((4-(2-hydroxypropan-2-yl)pyridin-2-yl)amino)-N-(methyl-d3)pyridazine-3-carboxamide], the pIC50 was 6.67. With `[2H]C([2H])([2H])NC(=O)c1nnc(Nc2ccc(C(C)(C)O)cn2)cc1Nc1cccc(-c2ncc(F)cn2)c1OC` [Example 103, 4-((3-(5-fluoropyrimidin-2-yl)-2-methoxyphenyl)amino)-6-((5-(2-hydroxypropan-2-yl)pyridin-2-yl)amino)-N-(methyl-d3)pyridazine-3-carboxamide] the figure was 7.10. As for `[2H]C([2H])([2H])NC(=O)c1nnc(Nc2ccc(C(C)(C)O)cn2)cc1Nc1cc(F)cc(-c2ncccn2)c1OC` [Example 104, 4-((5-fluoro-2-methoxy-3-(pyrimidin-2-yl)phenyl)amino)-6-((5-(2-hydroxypropan-2-yl)pyridin-2-yl)amino)-N-(methyl-d3)pyridazine-3-carboxamide], the figure is 7.39; as for `[2H]C([2H])([2H])NC(=O)c1nnc(Nc2cc(C(C)(C)O)ccn2)cc1Nc1cc(F)cc(-c2ncccn2)c1OC` [Example 105, 4-((5-fluoro-2-methoxy-3-(pyrimidin-2-yl)phenyl)amino)-6-((4-(2-hydroxypropan-2-yl)pyridin-2-yl)amino)-N-(methyl-d3)pyridazine-3-carboxamide], 6.76; as for `[2H]C([2H])([2H])NC(=O)c1nnc(Nc2cc(=O)n(C)cn2)cc1Nc1cccc(-c2ncc(F)cn2)c1OC` [Example 106, 4-((3-(5-fluoropyrimidin-2-yl)-2-methoxyphenyl)amino)-N-(methyl-d3)-6-((1-methyl-6-oxo-1,6-dihydropyrimidin-4-yl)amino)pyridazine-3-carboxamide], 6.82.

For the compound `[2H]C([2H])([2H])NC(=O)c1nnc(Nc2cc3n(n2)CCN(C)C3=O)cc1Nc1cccc(-c2ncc(F)cn2)c1OC` [Example 107, 4-((3-(5-Fluoropyrimidin-2-yl)-2-methoxyphenyl)amino)-N-(methyl-d3)-6-((5-methyl-4-oxo-4,5,6,7-tetrahydropyrazolo[1,5-a]pyrazin-2-yl)amino)pyridazine-3-carboxamide], the pIC50 is 7.09. With `[2H]C([2H])([2H])NC(=O)c1nnc(Nc2cc3n(n2)CCN(C)C3=O)cc1Nc1cccc(-c2ncccn2)c1OC` [Example 108, 4-((2-Methoxy-3-(pyrimidin-2-yl)phenyl)amino)-N-(methyl-d3)-6-((5-methyl-4-oxo-4,5,6,7-tetrahydropyrazolo[1,5-a]pyrazin-2-yl)amino)pyridazine-3-carboxamide] the figure was 6.86; with `[2H]C([2H])([2H])NC(=O)c1nnc(Nc2cc3n(n2)CCN(C2CC2)C3=O)cc1Nc1cccc(-c2ncc(F)cn2)c1OC` [Example 109, 6-((5-cyclopropyl-4-oxo-4,5,6,7-tetrahydropyrazolo[1,5-a]pyrazin-2-yl)amino)-4-((3-(5-fluoropyrimidin-2-yl)-2-methoxyphenyl)amino)-N-(methyl-d3)pyridazine-3-carboxamide], 6.58; with `[2H]C([2H])([2H])NC(=O)c1nnc(NC(=O)C2CC2)cc1Nc1cccc(-c2ccc(S(C)(=O)=O)cn2)c1OC` [Example 110], 6.32. Consider `[2H]C([2H])([2H])NC(=O)c1nnc(NC(=O)C2CC2)cc1Nc1cccc(-c2ncc(S(C)(=O)=O)cn2)c1OC` [Example 111], for which the pIC50 is 6.67.

As to `[2H]C([2H])([2H])NC(=O)c1nnc(NC(=O)C2CC2)cc1Nc1cccc(-c2ncc(N3CCCC3=O)cn2)c1OC` [Example 112], the pIC50 is 7.57.

For `[2H]C([2H])([2H])NC(=O)c1nnc(NC(=O)C2CC2)cc1Nc1cccc(-c2ncc(N3CCOC3=O)cn2)c1OC` [Example 113], the pIC50 is 7.44.
